Consider 19 compounds from US8440710B2, “HSL inhibitors useful in the treatment of diabetes” (Hoffmann-La Roche Inc., priority 2009, dated 2013).

This assay concerns the target T1, human HSL (Homo sapiens, UniProt Q05469).
T1 construct: generate a full length human HSL ORF with a 3′-His6 tag; made in house; host or cells: High 5 insect cells (baculovirus, pFast-BAC)
T1 sequence (Q05469 1-1076): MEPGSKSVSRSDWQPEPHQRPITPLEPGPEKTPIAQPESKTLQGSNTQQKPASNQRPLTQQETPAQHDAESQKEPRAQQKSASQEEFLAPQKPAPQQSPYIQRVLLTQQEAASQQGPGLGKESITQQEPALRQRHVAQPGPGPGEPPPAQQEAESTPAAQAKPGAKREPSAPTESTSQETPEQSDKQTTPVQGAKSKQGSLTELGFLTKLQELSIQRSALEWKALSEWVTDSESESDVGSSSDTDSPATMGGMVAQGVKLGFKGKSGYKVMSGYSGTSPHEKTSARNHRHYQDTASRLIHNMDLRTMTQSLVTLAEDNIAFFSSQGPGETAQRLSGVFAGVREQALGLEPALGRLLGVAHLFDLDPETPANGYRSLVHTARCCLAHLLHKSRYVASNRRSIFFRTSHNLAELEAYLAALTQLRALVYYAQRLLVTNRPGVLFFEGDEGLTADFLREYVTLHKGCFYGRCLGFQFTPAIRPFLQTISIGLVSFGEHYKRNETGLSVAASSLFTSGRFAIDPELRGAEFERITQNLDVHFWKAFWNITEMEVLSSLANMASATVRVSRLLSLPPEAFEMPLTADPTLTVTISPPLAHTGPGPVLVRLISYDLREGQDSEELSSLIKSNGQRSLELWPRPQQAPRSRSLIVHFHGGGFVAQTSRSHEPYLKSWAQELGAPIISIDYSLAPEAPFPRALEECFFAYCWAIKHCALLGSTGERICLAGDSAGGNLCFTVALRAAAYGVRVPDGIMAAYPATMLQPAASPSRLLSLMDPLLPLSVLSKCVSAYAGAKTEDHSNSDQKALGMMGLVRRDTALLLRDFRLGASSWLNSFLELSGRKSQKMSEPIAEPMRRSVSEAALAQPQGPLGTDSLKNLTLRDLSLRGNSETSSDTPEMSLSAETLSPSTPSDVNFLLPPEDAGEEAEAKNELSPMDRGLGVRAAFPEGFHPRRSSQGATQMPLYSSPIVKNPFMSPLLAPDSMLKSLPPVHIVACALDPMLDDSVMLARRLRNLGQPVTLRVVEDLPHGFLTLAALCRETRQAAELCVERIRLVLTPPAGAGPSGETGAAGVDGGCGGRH
The experiment in a line: Human Hormone-Sensitive Lipase (HSL) enzyme inhibition assay (colorimetric, DMPT substrate). In kind it is biochemical. Particulars: human full length HSL-His6, 2,3-dimercapto-1-propanol tributyrate substrate, 37° C. 20 minutes, absorbance at 405 nm; read-out: HSL hum IC50. The procedure: Production of Human Full Length Hormone Sensitive Lipase-His^6:
1) Cloning: cDNA was prepared from commercial human brain polyA+ RNA and used as a template in overlapping PCR to generate a full length human HSL ORF with a 3′-His6 tag. This full length insert was cloned into the pFast-BAC vector and the DNA-sequence of several single clones was verified. DNA from a correct full length clone with the 3′His6 tag was used to transform the E. coli strain DH10BAC. Resulting bacmid DNA was used to generate a titered baculovirus stock for protein generation. The sequence of the encoded HSL conforms to Swissprot entry Q05469, with the additional C-terminal His6-tag. 2) Protein purification: Culture: 5.5 L, High 5 cells expressing human full length HSL-His^6, 48 hr., containing 25 μM E-64. Cell count: […], 90% viable. Cells were thawed. On ice, cells were suspended in Base Buffer containing 10% glycerol, 25 mM Tris-Cl, 300 mM NaCl, 10 mM imidazole, 10 mM 2-mercaptoethanol, 2 μg pepstatin/ml, 2 μg leupeptin/ml, 2 μg antipain/ml, pH 8.0 at 4° C. in a final volume of 475 ml with 3.75×10^7 cells/ml. […] was done at 3×30 sec., Lubrol PX was added to 0.2% final concentration followed by stirring for 15 min. at 4° C. and centrifugation at 25 k×g, 60 min., 4° C. Soluble proteins were mixed with 60 ml of pre-washed and equilibrated Ni-NTA Agarose (Qiagen 30210) followed by tumbling end-over-end, 45 min., 4° C., centrifugation 1000 rpm 5 min and letting resin settle 5 min. Supernatant was removed, the resin washed in the centrifuge vessel using 5 volumes of Base Buffer containing 0.2% Lubrol PX. Centrifugation was done again, then the supernatant discarded. The resin was poured onto a 0.8 μm membrane in a disposable filter unit (Nalge 450-0080), and washed with 5 volumes of Base Buffer containing 0.2% Lubrol PX. It was then washed with 30 volumes of Base Buffer containing 60 mM imidazole pH 7.5 at 4° C. The protein was eluated with 5 volumes of 25 mM Tris-Cl, 300 mM NaCl, 200 mM imidazole, 10 mM 2-mercaptoethanol, pH 7.5 at 4° C. by tumbling resin with buffer end-over-end, 30 min., 4° C. The resin was captured on a 0.2 μm membrane disposable filter unit (Millipore SCGP U02 RE) and the eluate collected in the reservoir. The eluate was concentrated using a 30 k MWCO centrifugal filter device (Sartorius Vivascience Vivacell 100, VC1022), to 20 ml. It was then dialyzed overnight at 4° C., two times against 2 L of 10% glycerol, 25 mM Tris-Cl, 300 mM NaCl, 0.2 mM EDTA, 0.2 mM DTT, pH 7.5 at 4° C. The protein was filtered using a 0.22 μm disposable filter unit (Millipore SCGP00525). The protein concentration was calculated from absorbance at 280 nm, using 280=0.67 cm-1 mg-1. Yield was 235 mg, total. The protein was stored at −80° C. Human Hormone-Sensitive Lipase (HSL) Enzyme Inhibition Assay:
HSL enzyme activity was measured by a colorimetric assay using 2,3-dimercapto-1-propanol tributyrate (Aldrich, St. Louis, Mo.) as a substrate. Typically, 1.5 mM 2,3-dimercapto-1-propanol tributyrate (DMPT) in 100 mM MOPS, pH 7.2, 0.2 mg/ml fatty acid-free BSA was prepared by sonication at 4° C. to homogenous suspension. Test compounds (2 mM stock in DMSO) were diluted 3 fold in series in DMSO. Compound solutions were diluted 24 fold in 1.5 mM DMPT containing solution and 18 ul per well was added to 384-well microplates (Corning Costar). Twelve microliters per well of human HSL (15 ug/ml) was added and the reaction mixture was incubated at 37° C. for 20 minutes. Six microliters of 12 mM dithio-bis-(2-nitrobenzoic acid) (DTNB) in DMSO plus 1.2% SDS and 0.6% Triton X-100 were added and the mixture was incubated at room temperature for 15 minutes. Product production was monitored by reading absorbance at 405 nm on an Envision Reader (PerkinElmer Life and Analytical Sciences, Shelton, Conn.).
As to `CC(C)[C@]1(O)CC[C@]2(CCN(c3ccc(C(O)C(C)(F)F)cc3)C2=O)CC1` (stereo partly drawn) [Example 191, (5α,8α)-2-(4-(2,2-difluoro-1-hydroxypropyl)phenyl)-8-hydroxy-8-isopropyl-2-aza-spiro[4.5]decan-1-one], the IC50 (usually the point on the concentration scale where inhibition reaches its midpoint) worked out at 0.05 µM.

On to `C[C@]1(O)CC[C@]2(CCN(c3ccc(OC(F)(F)F)cc3)C2=O)CC1` [Example 57, (5α,8α)-8-Hydroxy-8-methyl-2-(4-trifluoromethoxy-phenyl)-2-aza-spiro[4.5]decan-1-one], for which the IC50 was found to be 0.07 µM.

For `CCOC[C@]1(O)CC[C@]2(CCN(c3ccc(C4CC4)cc3)C2=O)CC1` [Example 271, (5α,8α)-2-(4-Cyclopropyl-phenyl)-8-ethoxymethyl-8-hydroxy-2-aza-spiro[4.5]decan-1-one], the IC50 turned out to be 0.03 µM.

Regarding `COCCC[C@]1(O)CC[C@]2(CCN(c3ccc(OC(F)(F)F)cc3)C2=O)CC1` [Example 90, (5α,8α)-8-Hydroxy-8-(3-methoxy-propyl)-2-(4-trifluoromethoxy-phenyl)-2-aza-spiro[4.5]decan-1-one], the half-maximal inhibitory concentration (IC50) was 0.023 µM.

Consider `CO[C@H](c1ccc(N2CC[C@]3(CC[C@@](O)(COCC(F)(F)F)CC3)C2=O)cc1)C(F)(F)F` [Example 372, (5α,8α)-8-Hydroxy-8-(2,2,2-trifluoro-ethoxymethyl)-2-[4-((R)-2,2,2-trifluoro-1-methoxy-ethyl)-phenyl]-2-aza-spiro[4.5]decan-1-one], for which the half-inhibitory concentration (IC50) amounted to 0.017 µM.

With `CCCC[C@]1(O)CC[C@@]2(CCN(c3ccc(OCCOC)cc3)C2=O)CC1` [Example 97, (5α,8β)-8-Butyl-8-hydroxy-2-[4-(2-methoxy-ethoxy)-phenyl]-2-aza-spiro[4.5]decan-1-one], the IC50 is 1.82 µM.

For `O=C1N(c2ccc(CC(F)(F)F)cc2)CC[C@]12CC[C@](O)(COCC(F)(F)F)CC2` [Example 286, (5α,8β)-8-Hydroxy-8-(2,2,2-trifluoro-ethoxymethyl)-2-[4-(2,2,2-trifluoro-ethyl)-phenyl]-2-aza-spiro[4.5]decan-1-one], the IC50 was found to be 0.19 µM.

Take `O=C1N(c2ccc(CC(F)(F)F)cc2)CC[C@]12CC[C@@](O)(COCC(F)F)CC2` [Example 303, (5α,8α)-8-(2,2-Difluoro-ethoxymethyl)-8-hydroxy-2-[4-(2,2,2-trifluoro-ethyl)-phenyl]-2-aza-spiro[4.5]decan-1-one]: the IC50 worked out at 0.01 µM.

For the compound `O=C1N(c2ccc(OC(F)(F)F)cc2)CC[C@]12CC[C@H](O)CC2` [Example 2, (5α,8α)-8-Hydroxy-2-(4-trifluoromethoxy-phenyl)-2-aza-spiro[4.5]decan-1-one], the 50% inhibitory concentration (IC50) was found to be 0.15 µM.

Turning to `CCC[C@]1(O)CC[C@]2(CCN(c3ccc(C(F)(F)F)cc3)C2=O)CC1` [Example 208, (5α,8α)-8-hydroxy-8-propyl-2-(4-(trifluoromethyl)phenyl)-2-aza-spiro[4.5]decan-1-one], the IC50 came out at 0.03 µM.

In the case of `O=C(NCCO)O[C@H]1CC[C@@]2(CCN(c3ccc(OC(F)(F)F)cc3)C2=O)CC1` [Example 27, (2-Hydroxy-ethyl)-carbamic acid [(5α,8β)-1-oxo-2-(4-trifluoromethoxy-phenyl)-2-aza-spiro[4.5]dec-8-yl]ester], the IC50 was determined as 0.18 µM.

As to `CCO[C@H](c1ccc(N2CC[C@]3(CC[C@@](O)(COC)CC3)C2=O)cc1)C(F)(F)F` [Example 140, (5α,8α)-2-(4-((R)-1-Ethoxy-2,2,2-trifluoroethyl)phenyl)-8-hydroxy-8-(methoxymethyl)-2-aza-spiro[4.5]decan-1-one], the IC50 turned out to be 0.16 µM.

In the case of `CCOC[C@]1(O)CC[C@]2(CCN(c3ccc(OCC(F)(F)F)cc3)C2=O)CC1` [Example 234, (5α,8α)-8-Ethoxymethyl-8-hydroxy-2-[4-(2,2,2-trifluoro-ethoxy)phenyl]-2-aza-spiro[4.5]decan-1-one], the IC50 came to 0.04 µM.

With `COc1ccc(N2CC[C@]3(CC[C@@H](Oc4ccccc4)CC3)C2=O)cc1` [Example 48, (5α,8β)-2-(4-Methoxy-phenyl)-8-phenoxy-2-aza-spiro[4.5]decan-1-one], the IC50 stood at 1.71 µM.

Take `CC(C)(O)CNC(=O)O[C@H]1CC[C@@]2(CCN(c3ccc(OC(F)(F)F)cc3)C2=O)CC1` [Example 26, (2-Hydroxy-2-methyl-propyl)-carbamic acid [(5α,8β)-1-oxo-2-(4-trifluoromethoxy-phenyl)-2-aza-spiro[4.5]dec-8-yl]ester]: the IC50 is 0.11 µM.

For `CCC[C@]1(O)CC[C@]2(CCN(c3ccc(O[C@@H](C)C(F)(F)F)nc3)C2=O)CC1` [Example 172, (5α,8α)-8-Hydroxy-8-propyl-2-[6-((S)-2,2,2-trifluoro-1-methyl-ethoxy)-pyridin-3-yl]-2-aza-spiro[4.5]decan-1-one], the IC50 worked out at 0.02 µM.

On to `COCCCc1ccc(N2CC[C@]3(CC[C@@](O)(C(C)C)CC3)C2=O)cc1` [Example 130, (5α,8α)-8-Hydroxy-8-isopropyl-2-(4-(3-methoxypropyl)phenyl)-2-aza-spiro[4.5]decan-1-one], for which the concentration for half-maximal inhibition (IC50) turned out to be 0.05 µM.

For `C[C@]1(O)CC[C@]2(CCN(c3ccc(C4CC4)cc3)C2=O)CC1` [Example 73, (5α,8α)-2-(4-Cyclopropyl-phenyl)-8-hydroxy-8-methyl-2-aza-spiro[4.5]decan-1-one], the 50% inhibitory concentration (IC50) is 0.15 µM.

For `CCC[C@]1(O)CC[C@]2(CCN(c3ccc(CCOC)cc3)C2=O)CC1` [Example 122, (5α,8α)-8-Hydroxy-2-[4-(2-methoxy-ethyl)-phenyl]-8-propyl-2-aza-spiro[4.5]decan-1-one], the IC50 is 0.05 µM.
